This is an account of results in patent US20220280581A1, “BENEFICIAL BACTERIA AND SECRETORY IMMUNOGLOBULIN A” (priority 2019, published 2022).

In assay [1] the test system is Caco-2 colonic cells co-cultured with HT29-MTX E12 cells. Nature of the assay: Bacterial adherence to colonocyte co-cultures. Type of assay: cell-based, human. As for the experimental part:
(§1) Mammalian cell culture binding assays: Caco-2 colonic cells were co-cultured with HT29-MTX E12 cells at a ratio of 3:1 and seeded at a density of 5×10^4 cells/well in 24-well plates, maintained as described above. On day 1 post-confluence, medium was removed, the cells washed once with PBS, and DMEM without FBS or antibiotics was added prior to binding assay. Bacteria were prepared as described above, with or without SIgA and resuspended in PBS at 1×10^7 CFU/mL. 4×10^5 CFU were added to the colonocytes and the plate was centrifuged at 600×g for 5 min to ensure bacteria association with the cells. After 2 h of incubation at 37° C. in 5% CO2, medium was removed and saved for cytokine analysis. Cells were washed once with PBS, and to one set of replicates, cells were lysed with 0.5% Triton X-100 and serial dilutions of the cell suspensions were plated on MRS and incubated anaerobically at 37° C. overnight to test viability. To a second set of replicates, TRIzol (15596018; Life Technologies) was added directly to washed cells for RNA extraction.

In assay [2] the test system is pooled human milk SIgA. The assay is described as follows: Binding of SIgA to bacteria by flow cytometry. Conditions: 100 μg SIgA to 1e6 cfu bacteria. Background: Flow cytometry measures light scatter and fluorescence of single cells or particles in a stream.
Assay [3] can be described thus: Protection from simulated gastric digestion in vitro (pepsin, pancreatin): viability by CFU plating and live/dead flow cytometry. Conditions: for Slope (CFU/% SIgA): regression of viable CFU post-digestion on SIgA association. The protocol:
(§2) Flow cytometry and immunofluorescence: To measure binding cells were fixed using 4% w/v paraformaldehyde for 30 min, washed with PBS, then incubated with 1% bovine serum albumin (BSA) blocking buffer for 1 h. Cells were stained with 1/100 dilution SYTOT™ 9 (S34854, ThermoFisher) for live cells and goat anti-human IgA conjugated to Alexa 647 fluorophore using 1/50 dilution in 1% BSA (ab96998, Abcam). For flow cytometry, all samples were acquired and analyzed on a FACScan flow cytometer (BD Biosciences, Mountain View, Calif.) using the CellQuest software program. For live/dead analyses following in vitro digestion, cells were stained with SYTOT™ 9 (1/100 dilution) for live cells and propidium iodine (1/1000 dilution) for dead cells or cells with compromised membranes.
Protection from digestion using an in vitro model. To determine the extent to which the SIgA-glycan-mediated-bacterial complexes that included the Ig-bound secretory component (SC) where able to protect bacteria and SIgA from proteolytic degradation, an in vitro model was used. Simulated gastric digestion was performed by resuspending bacteria in 200 ul of 0.1% porcine pepsin (Sigma—Aldrich, St. Louis, Mo.) in PBS at pH 4. Samples were placed in an incubating shaker (New Brunswick Scientific, Edison, N.J.) at 140 rpm at 37° C. for 15 min. Cells were then pelleted and resuspended in 200 ul of 0.04% pancreatin (Sigma— Aldrich) in PBS pH 7, and the samples placed in the incubator shaker at 140 rpm at 37° C. for 5 min. Bacteria were pelleted and washed twice with PBS to remove residual enzymes, then evaluated for viability through CFU serial dilution and spot plating, and with live/dead flow cytometry analysis.

Assay [4] deals with pooled human milk SIgA. Nature of the assay: Binding of SIgA to bacteria by flow cytometry. Conditions: for binding of a heterogeneous pool of SIgA: 0-1000 μg SIgA per 1e7 CFU; for association to SIgA when first grown on 2′FL: 1% 2′FL in the final media. The protocol: Binding of sIgA to bacteria. Bacteria from Table 1 were resuspended in 0.8% saline at a concentration of 1×10^7 CFU/mL. SIgA was then added at 0, 10, 100, 500 and 1000 μg per 1×10^7 colony forming units (CFU) of bacteria and incubated at 24° C. for 30 min. Following incubation, bacteria were pelleted at 14000×g for 4 min and washed with saline twice to remove non-adherent SIgA.
as §2

For assay [5], the system named is SIgA. Nature of the assay: Loss of SIgA-bacteria association after deglycosylation. In kind it is binding.
In assay [6] the test system is colonocytes (Caco-2 / HT29-MTX E12 co-culture). The assay is described as follows: Colonocyte barrier function and immune gene expression (RT-qPCR). Conditions: 1000 μg SIgA per 1e7 CFU vs no SIgA. Type of assay: cell-based, human. The protocol: as §1
Mammalian cell culture RT-qPCR for gene expression: Total RNA from mammalian co-culture samples were extracted via the TRIzol method. Total RNA (1 μg) was treated with Turbo DNAse (EN0521; Thermo Fisher) to remove genomic DNA, then used for reverse transcription producing cDNA, performed according to manufacturer protocol (High Capacity Complementary DNA Reverse Transcription Kit; Applied Biosystems). Gene list and primer sequences can be found in Table 2. Real-time PCR was performed with the Quantistudio 3 qPCR thermocycler (Applied Biosystems) using SyberGreen master mix (Life Technologies). Actin and GADPH were used as house-keeping genes. Analysis was performed using Quantistudio Design and Analysis Software v.1.4.3.
In general terms: In qPCR the cycle at which signal appears reflects the starting amount.

For Bifidobacterium bifidum SC555, the results for the “Slope (adherent CFU/% SIgA association)” value in assay [1] (substrate 2'FL), in assay [1] (substrate all) and in assay [1] (substrate glucose) were 16.9 adherent CFU/% SIgA associatio, 896.4 adherent CFU/% SIgA associatio and 2288.0 adherent CFU/% SIgA associatio, respectively.
For Bifidobacterium breve SC95, the “ability to bind to pooled human milk SIgA” value in assay [2] stood at 16%. In assay [2], the “increase in SIgA binding when first grown on an HMO substrate” value was determined as 45%. The “Slope (adherent CFU/% SIgA association)” value in assay [1] (substrate LNnT) is reported as 19516.0 adherent CFU/% SIgA associatio; in assay [1] (substrate all) it was 13289.0 adherent CFU/% SIgA associatio; in assay [1] (substrate glucose), 9083.0 adherent CFU/% SIgA associatio; in assay [1] (substrate lactose), 4617.0 adherent CFU/% SIgA associatio. Besides, the “live bacteria post-digestion (live-dead flow cytometry)” value in assay [3] (1000 μg SIgA/1e7 CFU) is 57.8%; in assay [3] (no SIgA), “no viable bacteria”. Also, the “Slope (CFU/% SIgA)” value is reported as 223.1 CFU/% SIgA in assay [3] (substrate LNnT) and −106.9 CFU/% SIgA in assay [3] (substrate lactose).
On to “Bifidobacterium longum ssp. longum SC596”, for which the “binding of a heterogeneous pool of SIgA” value in assay [4] was “concentration dependent”. In addition, the “association to SIgA when first grown on 2′FL” value in assay [4] is given as “increased association to SIgA”. Besides, the “increased adherence to colonocytes with SIgA association” value in assay [1] (first grown on 2′FL) is on record as 4e3. The “Slope (adherent CFU/% SIgA association)” value is reported as 37.7 adherent CFU/% SIgA associatio in assay [1] (substrate 2'FL), 27.1 adherent CFU/% SIgA associatio in assay [1] (substrate all), 28.5 adherent CFU/% SIgA associatio in assay [1] (substrate glucose) and −13.3 adherent CFU/% SIgA associatio in assay [1] (substrate lactose). Besides, the “live bacteria post-digestion (live-dead flow cytometry)” value is recorded as 50.85% in assay [3] (1000 μg SIgA/1e7 CFU) and 29.05% in assay [3] (no SIgA).
Regarding Bifidobacterium pseudocatenulatum MP80, the “association to SIgA when first grown on 2′FL” value in assay [4] was “increased association to SIgA”. Besides, the “ability to bind to pooled human milk SIgA” value in assay [2] came to 40.3%. Also, the “increase in SIgA binding when first grown on an HMO substrate” value in assay [2] is on record as 61.7%. Further, the “Slope (adherent CFU/% SIgA association)” value in assay [1] (substrate 2'FL) is −50.6 adherent CFU/% SIgA associatio; in assay [1] (substrate all), 32.0 adherent CFU/% SIgA associatio; in assay [1] (substrate glucose) it was 14.2 adherent CFU/% SIgA associatio. The viable bacteria post-digestion in assay [3] (grown on glucose, 100 or 1000 μg SIgA/1e7 CFU) is given as 4e6; in assay [3] (grown on glucose, no SIgA), 2e5 CFU. For the same substance, the “slope of regression plot of viability with SIgA association” value in assay [3] (post-digestion, grown on glucose) is 8.2e4 CFU per % population SIgA association. The “Slope (CFU/% SIgA)” value is 51114 CFU/% SIgA in assay [3] (substrate 2′FL) and 82548 CFU/% SIgA in assay [3] (substrate glucose).
Take Lactobacillus acidophilus NCFM: the “Slope (adherent CFU/% SIgA association)” value in assay [1] (substrate all) is listed as −3134.0 adherent CFU/% SIgA associatio; in assay [1] (substrate glucose) it was −3014.0 adherent CFU/% SIgA associatio; in assay [1] (substrate lactose), −3341.0 adherent CFU/% SIgA associatio. Besides, the “slope m of association to SIgA post-digestion” value in assay [3] (grown on glucose) is listed as −8.9e3 CFU/% SIgA association. The “Slope (CFU/% SIgA)” value in assay [3] (substrate glucose) is −8952 CFU/% SIgA; in assay [3] (substrate lactose) it was 38918 CFU/% SIgA.
In the case of Lactobacillus reuteri DSM, in assay [5], the “loss of SIgA-bacteria complexes after deglycosylation” value is listed as “over 7%”. Further, the “Slope (adherent CFU/% SIgA association)” value is recorded as −4652.0 adherent CFU/% SIgA associatio in assay [1] (substrate all), −9455.0 adherent CFU/% SIgA associatio in assay [1] (substrate glucose) and 524.1 adherent CFU/% SIgA associatio in assay [1] (substrate lactose). The “slope m of association to SIgA post-digestion” value in assay [3] (grown on glucose) is reported as −3.9e4 CFU/% SIgA association. Besides, the “Slope (CFU/% SIgA)” value in assay [3] (substrate glucose) is recorded as −38517 CFU/% SIgA; in assay [3] (substrate lactose), 47155 CFU/% SIgA.
For the substance Lactobacillus rhamnosus ATCC 7469, the “binding of a heterogeneous pool of SIgA” value in assay [4] is given as “concentration dependent”. In addition, the “decrease of IL-8 gene expression when first complexed with SIgA” value in assay [6] is listed as 4 fold. Moreover, the “decrease of pIgR gene expression when first complexed with SIgA” value in assay [6] is 4 fold. Moreover, the “slope of regression plot of adherent bacteria with SIgA association” value in assay [1] (lactose-grown) is on record as 37.7 adherent CFU per % population associated with SIgA. Moreover, the “Slope (adherent CFU/% SIgA association)” value in assay [1] (substrate 2'FL) is 333.3 adherent CFU/% SIgA associatio; in assay [1] (substrate glucose), −138.4 adherent CFU/% SIgA associatio; in assay [1] (substrate lactose), 456.6 adherent CFU/% SIgA associatio. Besides, the “difference post-digestion with or without SIgA” value in assay [3] (grown in 1% glucose) is “no significant difference”. The entries for the “Slope (CFU/% SIgA)” value in assay [3] (substrate 2′FL), in assay [3] (substrate glucose) and in assay [3] (substrate lactose) were −39446 CFU/% SIgA, −2121 CFU/% SIgA and −23719 CFU/% SIgA, respectively.
